PubChem BioAssay (NCI)
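Grown in 96-well plates, cells were treated for 48 hours with each compound at five concentrations. Insufficient inhibition: endpoint recorded as highest concentration tested. TGI: concentration producing complete growth inhibition.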 Where a SMILES comes first, the peptide text is derived from it.

Tests used:
Assay in all cases: inhibition of tumour cell growth, NCI panel, 48 h
NCI-H23 lung = tested on: NCI-H23 lung
SF-539 CNS = tested on: SF-539 CNS
HS 578T breast = tested on: HS 578T breast
NCI/ADR-RES ovarian = tested on: NCI/ADR-RES ovarian
UACC-257 melanoma = tested on: UACC-257 melanoma
SNB-78 CNS = tested on: SNB-78 CNS
LXFL 529 NSCLC = tested on: LXFL 529 NSCLC
M19-MEL melanoma = tested on: M19-MEL melanoma
DLD-1 colon = tested on: DLD-1 colon
DMS 273 small cell lung = tested on: DMS 273 small cell lung
HOP-18 NSCLC = tested on: HOP-18 NSCLC

## O=C1c2cc3c(cc2CC12Cc1cc4c(cc1C2=O)CCC4)CCCC3 (configuration not stated)
NCI-H23 lung
  TGI: > 100 µM
SF-539 CNS
  TGI: > 100 µM
HS 578T breast
  TGI: > 100 µM
NCI/ADR-RES ovarian
  TGI: > 100 µM
UACC-257 melanoma
  TGI: > 100 µM

## CC(C)=CCS(=O)c1ccccc1NC1=CC(=O)CC(C)(C)C1 (configuration not stated)
NCI-H23 lung
  TGI: > 100 µM
SF-539 CNS
  TGI: > 100 µM
HS 578T breast
  TGI: > 100 µM
NCI/ADR-RES ovarian
  TGI: > 100 µM
UACC-257 melanoma
  TGI: > 100 µM

## COc1cccc(OC)c1/C=C1\OC(=O)c2cccc(OC)c21
NCI-H23 lung
  TGI: > 100 µM
SF-539 CNS
  TGI: 6.21 µM
HS 578T breast
  TGI: 26.7 µM
NCI/ADR-RES ovarian
  TGI: > 100 µM
UACC-257 melanoma
  TGI: > 100 µM

## Cc1ccc(S(=O)(=O)C2=Cc3ccc(C(F)(F)F)cc3C2(O)c2cccc(C(F)(F)F)c2)cc1 (configuration not stated)
NCI-H23 lung
  TGI: 6.26 µM
SF-539 CNS
  TGI: 3.84 µM
HS 578T breast
  TGI: > 27.2 µM
NCI/ADR-RES ovarian
  TGI: 8.51 µM
UACC-257 melanoma
  TGI: 3.93 µM

## O=C1NC(=O)C(c2c[nH]c3cc(Br)ccc23)=C1c1cn(C(c2ccccc2)(c2ccccc2)c2ccccc2)cn1
NCI-H23 lung
  TGI: 25.3 µM
SF-539 CNS
  TGI: 37.9 µM
HS 578T breast
  TGI: > 100 µM
NCI/ADR-RES ovarian
  TGI: > 100 µM
UACC-257 melanoma
  TGI: 51.2 µM

## Cc1cccc2c1[C@]13OC(C)[C@]4(C)CC5OC(=O)[C@@]1(C)[C@@H]5[C@]34C(=O)O2 (some centres not stated)
NCI-H23 lung
  TGI: > 100 µM
SF-539 CNS
  TGI: > 100 µM
HS 578T breast
  TGI: > 100 µM
NCI/ADR-RES ovarian
  TGI: > 100 µM
UACC-257 melanoma
  TGI: > 100 µM

## N#Cc1c(-c2ccccc2)[nH]c2ccccc2c1=O
SF-539 CNS
  TGI: > 100 µM
HS 578T breast
  TGI: 71.5 µM
NCI/ADR-RES ovarian
  TGI: > 100 µM
UACC-257 melanoma
  TGI: > 100 µM

## CC(=O)OC1CC2c3cccc4c3C(CC2N(C)C1=O)CN4C(=O)c1ccccc1 (configuration not stated)
NCI-H23 lung
  TGI: 55.4 µM
SF-539 CNS
  TGI: 93.9 µM
NCI/ADR-RES ovarian
  TGI: 45.1 µM
UACC-257 melanoma
  TGI: 49.9 µM

## COc1ccc2c(c1C)C(=O)C(O)(CC=C(C)C)O2 (configuration not stated)
NCI-H23 lung
  TGI: > 100 µM
SF-539 CNS
  TGI: > 100 µM
HS 578T breast
  TGI: > 100 µM
NCI/ADR-RES ovarian
  TGI: > 100 µM
UACC-257 melanoma
  TGI: > 100 µM

## CC1=CC(C2/C(=N/O)C=C(C)CC2(C)C)C(O)C(C)(C)C1 (configuration not stated)
NCI-H23 lung
  TGI: 32.8 µM
SF-539 CNS
  TGI: 41.7 µM
HS 578T breast
  TGI: > 100 µM
NCI/ADR-RES ovarian
  TGI: 33.5 µM
UACC-257 melanoma
  TGI: 30.1 µM

## CCC(C)C(NC(=O)C(CCCCN)NC(=O)C(NC(=O)C(CCC(N)=O)NC(=O)C(N)CCCNC(=N)N)C(C)CC)C(=O)NC(Cc1c[nH]c2ccccc12)C(=O)NC(Cc1ccccc1)C(=O)NC(CCC(N)=O)C(=O)NC(CC(N)=O)C(=O)NC(CCCNC(=N)N)C(=O)NC(CCCNC(=N)N)C(=O)NC(CCSC)C(=O)NC(CCCCN)C(=O)NC(Cc1c[nH]c2ccccc12)C(=O)NC(CCCCN)C(=O)NC(CCCCN)C(=O)N1CCCC1C(=O)NC(C)C(=O)NC(CCCCN)C(=O)NC(CCCNC(=N)N)C(=O)NC(CCCCN)C(=O)NC(CC(C)C)C(=O)NC(Cc1ccccc1)C(=O)NCC(=O)O (configuration not stated) (H-RQIKIWFQNRRMKWKKPAKRKLFG-OH; configuration not given here)
NCI-H23 lung
  TGI: > 25 µM
HS 578T breast
  TGI: > 25 µM
NCI/ADR-RES ovarian
  TGI: > 25 µM
UACC-257 melanoma
  TGI: > 25 µM

## COc1ccc2c(c1)CN1C(=N2)CSC1c1cc([N+](=O)[O-])ccc1Cl (configuration not stated)
NCI-H23 lung
  TGI: > 100 µM
SF-539 CNS
  TGI: 98.2 µM
HS 578T breast
  TGI: > 100 µM
NCI/ADR-RES ovarian
  TGI: > 100 µM
UACC-257 melanoma
  TGI: > 100 µM

## NS(=O)(=O)c1ccc(-n2c(-c3cccs3)nc3ccc(I)cc3c2=O)cc1
NCI-H23 lung
  TGI: 51.1 µM
NCI/ADR-RES ovarian
  TGI: 86.3 µM
UACC-257 melanoma
  TGI: 19.3 µM

## CCOC(=O)CC1c2ccc(O)cc2OC(=O)C1c1ccc([N+](=O)[O-])cc1 (configuration not stated)
NCI-H23 lung
  TGI: 96.7 µM
SF-539 CNS
  TGI: > 100 µM
HS 578T breast
  TGI: > 100 µM
NCI/ADR-RES ovarian
  TGI: 72.6 µM
UACC-257 melanoma
  TGI: 94.5 µM

## Cn1ccc(C(=O)NCCOCCNC(=O)c2ccn(C)c(=O)c2O)c(O)c1=O
NCI-H23 lung
  TGI: > 100 µM
HS 578T breast
  TGI: > 100 µM
NCI/ADR-RES ovarian
  TGI: > 100 µM
UACC-257 melanoma
  TGI: > 100 µM

## CN(C)C1=Nc2ccccc2C(=S)N2CSCC12 (configuration not stated)
HS 578T breast
  TGI: > 100 µM
NCI/ADR-RES ovarian
  TGI: > 100 µM
UACC-257 melanoma
  TGI: > 100 µM

## C=CCNC1=C2C[C@@H](C)C[C@@H](OC)[C@@H](OC(=O)CCCN)[C@H](C)/C=C(\C)[C@@H](OC(N)=O)[C@H](OC)/C=C\C=C(/C)C(=O)NC(=CC1=O)C2=O
NCI-H23 lung
  TGI: 29.6 µM
SF-539 CNS
  TGI: 29.9 µM
HS 578T breast
  TGI: 49.5 µM
NCI/ADR-RES ovarian
  TGI: > 100 µM
UACC-257 melanoma
  TGI: 31.9 µM

## COc1ccc(CCNC2=CC(=O)c3ncccc3C2=O)cc1OC
NCI-H23 lung
  TGI: 2.58 µM
SF-539 CNS
  TGI: 4.73 µM
HS 578T breast
  TGI: 5.32 µM
NCI/ADR-RES ovarian
  TGI: 9.32 µM
UACC-257 melanoma
  TGI: 3.19 µM

## O=C(O)c1ccc(NNc2cc(=O)[nH]c(=O)[nH]2)cc1
NCI-H23 lung
  TGI: > 100 µM
SF-539 CNS
  TGI: > 100 µM
HS 578T breast
  TGI: > 100 µM
NCI/ADR-RES ovarian
  TGI: > 100 µM
UACC-257 melanoma
  TGI: > 100 µM

## COc1ccc2c(c1)CCc1c-2[nH]c2ccc(OC)cc12
NCI-H23 lung
  TGI: > 100 µM
HS 578T breast
  TGI: > 100 µM
NCI/ADR-RES ovarian
  TGI: > 100 µM
UACC-257 melanoma
  TGI: > 100 µM

## N#CC(NNC(=O)Cc1ccccc1)c1ccccc1O (configuration not stated)
SNB-78 CNS
  TGI: > 100 µM
NCI-H23 lung
  TGI: 76.4 µM
LXFL 529 NSCLC
  TGI: > 100 µM
M19-MEL melanoma
  TGI: 27 µM
SF-539 CNS
  TGI: 85.1 µM
DLD-1 colon
  TGI: > 100 µM
DMS 273 small cell lung
  TGI: > 100 µM
HS 578T breast
  TGI: > 100 µM
NCI/ADR-RES ovarian
  TGI: > 74.6 µM
UACC-257 melanoma
  TGI: > 94.3 µM
HOP-18 NSCLC
  TGI: 74.9 µM

## CC1=C(C(N)=O)C(c2ccncc2)C(C#N)=C2SCC(=O)N12 (configuration not stated)
NCI-H23 lung
  TGI: > 100 µM
SF-539 CNS
  TGI: > 100 µM
HS 578T breast
  TGI: > 100 µM
NCI/ADR-RES ovarian
  TGI: > 100 µM
UACC-257 melanoma
  TGI: > 100 µM

## C=CCN1C[C@H](C)N([C@H](c2ccc(C(=O)N(CC)CCO)cc2)c2cccc(OC)c2)C[C@H]1C
NCI-H23 lung
  TGI: > 100 µM
SF-539 CNS
  TGI: > 100 µM
HS 578T breast
  TGI: > 100 µM
NCI/ADR-RES ovarian
  TGI: > 100 µM
UACC-257 melanoma
  TGI: > 100 µM

## CN(Nc1cc(=O)[nH]c(=O)[nH]1)c1ccccc1
NCI-H23 lung
  TGI: > 100 µM
SF-539 CNS
  TGI: > 100 µM
HS 578T breast
  TGI: > 100 µM
NCI/ADR-RES ovarian
  TGI: > 100 µM
UACC-257 melanoma
  TGI: > 100 µM

## CC12CCC(C(=O)OC1=O)C2(C)C (configuration not stated)
NCI-H23 lung
  TGI: > 100 µM
SF-539 CNS
  TGI: > 100 µM
HS 578T breast
  TGI: > 100 µM
NCI/ADR-RES ovarian
  TGI: > 100 µM
UACC-257 melanoma
  TGI: > 100 µM

## CC1(C)c2ccccc2C(=O)C12CCC(=O)CC2
NCI-H23 lung
  TGI: > 100 µM
SF-539 CNS
  TGI: > 100 µM
HS 578T breast
  TGI: > 100 µM
NCI/ADR-RES ovarian
  TGI: > 100 µM
UACC-257 melanoma
  TGI: > 100 µM

## O=C(CC(c1ccccc1)N1CCCCC1)c1ccccc1 (configuration not stated)
NCI-H23 lung
  TGI: 31.6 µM
SF-539 CNS
  TGI: 39.2 µM
HS 578T breast
  TGI: 70.5 µM
NCI/ADR-RES ovarian
  TGI: 60.8 µM
UACC-257 melanoma
  TGI: 27.8 µM

## COc1cc(/C=C2\C[C@H]3[C@@H]4CC=C5C[C@@H](O)CC[C@]5(C)[C@H]4CC[C@]3(C)C2=O)cc(OC)c1OC
NCI-H23 lung
  TGI: > 100 µM
SF-539 CNS
  TGI: > 100 µM
HS 578T breast
  TGI: > 100 µM
NCI/ADR-RES ovarian
  TGI: > 100 µM
UACC-257 melanoma
  TGI: > 100 µM

## CCC1OC2C(CC=C(C)C)=C3OC(C)(O)C(C)(CC)C(OC(=O)c4ccccc4)C3=C3OC(=O)C=C1C32 (configuration not stated)
NCI-H23 lung
  TGI: > 100 µM
SF-539 CNS
  TGI: 54.1 µM
HS 578T breast
  TGI: > 100 µM
NCI/ADR-RES ovarian
  TGI: > 100 µM
UACC-257 melanoma
  TGI: > 100 µM

## O=C(O)c1nc(-c2ccccn2)c(-c2ccccn2)nc1C(=O)O
NCI-H23 lung
  TGI: 23.6 µM
SF-539 CNS
  TGI: 20.6 µM
HS 578T breast
  TGI: > 72.6 µM
NCI/ADR-RES ovarian
  TGI: > 23.1 µM
UACC-257 melanoma
  TGI: 16.4 µM
